Measured values: patent US12661308B2, “Antimicrobial AZO compounds and uses thereof” (The Regents Of The University Of Colorado, A Body Corporate, priority 2019, dated 2026)
“Also recorded” adds a separate entry of the source.

Experiments:
[1] = test system: S. oralis (ATCC 9811) biofilm; assay: Biofilm growth study, S. oralis; format: cell-based, Streptococcus oralis; details: 50 mg/mL coated substrate, 24 h time-period
Experimental: (§1) S. oralis and A. actinomycetemcomitans were streaked on a BHI agar plate and incubated at 37° C. and 5% CO2 for 48 h. An isolated colony was inoculated in 5 mL BHI media for 12 h under the same incubation conditions, followed by a 1:10 dilution in BHI media in a 96-well plate containing the substrates of interest. […]
(§2) Following biofilm growth in the 96-well plate, the substrates were aseptically removed from the 96-well plate and placed in a vial containing 5 mL of 1× PBS solution. The vials were sonicated in a water bath for 10 min at 45° C., and the wells that previously contained the substrates were briefly sonicated using a probe sonicator (3 W RMS output) for 10 s per well. 200 μL aliquots of the sonicated PBS solution were placed in a 96-well plate and diluted 1:10 in each subsequent row. 20 μL aliquots of the sonicated media wells were placed in a 96-well plate containing 180 μL of PBS solution and diluted 1:10 in each subsequent row. Each column was then plated at a volume of 10 μL on a BHI agar plate in triplicate. The plates were then incubated at 37° C. and 5% CO2 for 48 h. The CFUs on each plate were counted in order to quantify the amount of biofilm remaining on the surface of the substrate and the bacteria remaining in the media after the removal of the substrate using the following equations: […]

S. mutans biofilm = assay: Live-dead stain microscopy of S. mutans biofilms (Example 4); format: cell-based, Streptococcus mutans
Experimental: Microscope images were obtained using a Zeiss digital microscope at 6300× magnification using the FITC and CY3 channels. Following biofilm growth, the substrates were placed in a solution of live-dead stains (Invitrogen BacLight™) containing 1.5 μL Component A (SYTO® 9, green fluorescent nucleic acid stain) and 1.5 μL Component B (propidium iodide, red fluorescent nucleic acid stain) in 200 μL of sterile water. The substrates were soaked for 3 min, then gently washed in sterile water for 10 s, dried, and fixed to a glass slide prior to imaging.

S. mutans [2] = assay: DIBAC4(3) membrane potential assay; format: cell-based, Streptococcus mutans
Experimental: Membrane potential assays were performed as described by Wu et al. with minor modifications. Wu et al., Antibacterial activity and membrane-disruptive mechanism of 3-p-trans-coumaroyl-2-hydroxyquinic acid, a novel phenolic compound from pine needles of Cedrus deodara, against Staphylococcus aureus, Molecules (2016), 21(8):1-12. S. mutans bacteria grown for 24 h in BHI broth were inoculated in a 96-well plate as described above. The plate was incubated for 8 h at 37° C. and 5% CO2. 2 μL of 0.1 mg/mL DIBAC4 (3) solution in DMSO was added to each well. The plate was then incubated in the dark overnight. The fluorescence reading was taken in a plate reader at λexcitation=492 nm and λemission=515 nm. Fluorescence values in bacteria-containing wells were normalized against fluorescence values containing the same substrate but no bacteria.

[3] = test system: A. actinomycetemcomitans (ATCC 43718) biofilm; assay: Biofilm growth study, A. actinomycetemcomitans; format: cell-based, Aggregatibacter actinomycetemcomitans; details: 50 mg/mL coated substrate, 24 h time-period
Experimental: as §1, §2

[4] = test system: S. agalactiae (Group B strep, GBS); assay: Growth study, S. agalactiae (Group B strep); format: cell-based, Streptococcus agalactiae; details: 50 mg/ML coated substrates, BHI media, 24 h time-period
Experimental: A single bacterial colony was inoculated in 4 mL BHI media. The colony was grown to mid-log phase (to approximately OD600=0.4), statically at 37° C., which for was approximately 4 hours for the S. agalactiae GBS, approximately 11 hours for the S. pyogenes GAS, and approximately 6 hours for the S. pneumaoniae. They were diluted 1:5 in 80% glycerol (in water) solution (4 parts culture, 1 part glycerol, for a final glycerol concentration of 16%). In a 96-well plate, each was diluted to 1:100 resulting in a final concentration of 1×10^6 CFU/mL and grown at 37° C. with 5% CO2.

[5] = test system: L929 mouse epithelial cells; assay: MTT cytotoxicity of coated substrates (Example 3); format: cell-based; details: 0.5 mg/mL and 50 mg/mL coated substrates, cells grown 100 hr, relative to uncoated sample and negative control
Experimental: In this Example, the cytotoxicity of polymeric substrates coated with 0.5 mg/mL OH-AAZO and 50 mg/mL OH-AAZO in the manner described in Example 1 were tested using L929 mouse epithelial cells. The following six samples were prepared: polymeric substrate coated with 50 mg/mL OH-AAZO, polymeric substrate coated with 0.5 mg/mL OH-AAZO, uncoated polymeric substrate, positive control, negative control, and an empty well. All coatings were spin coated. All samples were run in triplicate.
The cells were grown on substrates for 100 hr with media replacement when necessary. L929 conditions: Passage 3. Initial concentration of cells: 1.67×10^4 cells/mL.
Methods and assumptions: • Wells containing MTT product were analyzed at 570 nm. • OD570 values were corrected based on OD570 values of wells containing MTT product+other reagents only (no cells). • Assumes 100% cell death (i.e., 0% cell viability) in these positive control wells. • Negative control (−) wells contained cells grown with no substrate. • Assumes all cell death occurred naturally.
Cell viability was calculated using the following equation: […]

S. mutans [6] = assay: Kill curve kinetic study of S. mutans in media surrounding the coated substrate; format: cell-based, Streptococcus mutans
Experimental: FIG. 13 are images from a complete plating of media of S. mutans in contact with OH-AAZO-coated substrates at different timepoints following seeding. The media sampled shown in FIG. 13 (A) at t=0 h was serial diluted as described in Example 4 (below) and gave a total CFU count of (8.0±3.2)×10^6 CFUs. The media sampled shown in FIG. 13 (B) at t=4 h was streaked across the entire plate and gave a total CFU count of 8 CFUs. The media sampled shown in FIG. 13 (C) at t=24 h was streaked across the entire plate and gave a total CFU count of 0 CFUs.
We sampled aliquots of the media containing S. mutans surrounding the OH-AAZO substrate at different time points (FIG. 4). At t=0, S. mutans colonies (1×10^6 CFUs) were introduced to the OH-AAZO coated substrate. At t=4 h, the CFU count in the well was reduced 2-log, and by t=6 h, the CFU count had reduced to zero.

C=CC(=O)Oc1ccccc1/N=N/c1ccccc1O [OH-AAZO, phenolic acrylated azobenzene]
S. oralis growth on coated substrate and in media [1]: did not grow on the coated substrate nor in the media; also recorded: antibacterial effect was only observed
live and dead bacteria on substrate, live-dead stain (S. mutans biofilm; 1.5% OH-AAZO bulk substrate, 24 h): high amounts of dead bacteria (lighter) and little to no live bacteria; also recorded: did not grow
live and dead bacteria on substrate, live-dead stain (S. mutans biofilm; 2% OH-AAZO bulk substrate, 24 h): high amounts of dead bacteria (lighter) and little to no live bacteria; also recorded: did not grow
live and dead bacteria on substrate, live-dead stain (S. mutans biofilm; coated substrate, 24 h biofilm growth, compared to uncoated control): high amounts of dead bacteria (lighter) and little to no live bacteria
DIBAC4(3) fluorescence of S. mutans (S. mutans [2]; 5 mg/mL coated substrate, relative to uncoated control): slight reduction
DIBAC4(3) fluorescence of S. mutans (S. mutans [2]; 25 mg/mL coated substrate): drop in fluorescence to zero
DIBAC4(3) fluorescence of S. mutans (S. mutans [2]; 50 mg/mL coated substrate): drop in fluorescence to zero; also recorded: dropped to zero
antibacterial effect on A. actinomycetemcomitans biofilm (CFUs) [3]: no discernable antibacterial effect or reduction in CFUs
S. agalactiae growth on coated substrate and in media [4]: did not grow on the coated substrate nor in the media
cytotoxicity (cell viability, MTT) [5]: non-cytotoxic; also recorded: does not contribute significantly to cytotoxicity
total CFU count, complete plating of media (S. mutans [6]; t=0 h, serial diluted): (8.0±3.2)×10^6 CFUs
reduction of CFU count in the well (S. mutans [6]; t=4 h, from 1×10^6 CFUs at t=0): 2 log
total CFU count, complete plating of media (S. mutans [6]; t=4 h, streaked across the entire plate): 8 CFUs
S. mutans CFU count in the media (S. mutans [6]; t=6 h): zero and complete S. mutans death and absence of S. mutans
